Like-named read-outs stand apart in the source and are kept apart here.
Columns and labels:
[1] = biological target: IRAK1 (His-TEV-IRAK1 (194-712)) (Homo sapiens (Human), UniProt P51617); experiment: IRAK1 enzymatic assay; type: biochemical
In short: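 Compounds ([…] down to 1 nM) were incubated 3 h at 30° C with His-TEV-IRAK1 (194-712, 15 ng/well) and 1 μM [33P]-labelled ATP in 50 mM Hepes pH 7.0, 10 mM MgCl2. After EDTA stop and washing, the retained autophosphorylation signal was measured by scintillation in streptavidin-coated plates.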

[2] = biological target: IRAK4 (Homo sapiens (Human), UniProt Q9NWZ3); experiment: IRAK4 enzymatic assay; type: biochemical
Sequence of IRAK4 (Q9NWZ3 whole entry): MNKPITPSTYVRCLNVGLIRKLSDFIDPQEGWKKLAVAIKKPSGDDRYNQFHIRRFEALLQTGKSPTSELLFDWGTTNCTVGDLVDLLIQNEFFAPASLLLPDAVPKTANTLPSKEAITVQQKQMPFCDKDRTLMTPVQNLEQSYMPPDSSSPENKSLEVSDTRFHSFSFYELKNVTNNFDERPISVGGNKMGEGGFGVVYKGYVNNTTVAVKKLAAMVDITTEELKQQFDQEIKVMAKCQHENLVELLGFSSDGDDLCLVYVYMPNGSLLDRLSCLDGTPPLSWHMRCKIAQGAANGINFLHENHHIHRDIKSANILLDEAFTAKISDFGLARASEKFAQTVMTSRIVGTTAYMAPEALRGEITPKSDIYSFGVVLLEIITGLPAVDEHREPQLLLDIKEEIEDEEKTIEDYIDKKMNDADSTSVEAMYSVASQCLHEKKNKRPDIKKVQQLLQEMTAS
In short: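 Radiometric streptavidin FlashPlate read: 3 h, 30° C incubation of His-TEV-IRAK4 (20 ng/well), STK1-biotin substrate (300 nM) and ATP (2 μM, [^33P]-labelled) in Hepes pH 7.0, MgCl2 10 mM, MnCl2 5 mM. Compounds from 20 µM down to 1 nM, 2% DMSO controls; reaction quenched with EDTA.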

[3] = system: TLR7 induced IL-6 secretion in human mononuclear cells (PBMC's); experiment: TLR7 induced IL-6 in human PBMC's; type: cell-based; details: read-out: TLR7 induced IL-6 secretion in hPBMC's (IC50)
In short: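 Fresh or frozen healthy-donor PBMCs preincubated 30 min at 37° C. with compound (25 uM to 0.4 nM; vehicle 0.25% DMSO) in RPMI/10% HI-FBS. Stimulated with TLR7 ligand (2 uM) for 16-18 h at 37° C.; supernatant IL-6 measured by AlphaLISA.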

Sequence of IRAK1 (His-TEV-IRAK1 (194-712)) (P51617 194-712): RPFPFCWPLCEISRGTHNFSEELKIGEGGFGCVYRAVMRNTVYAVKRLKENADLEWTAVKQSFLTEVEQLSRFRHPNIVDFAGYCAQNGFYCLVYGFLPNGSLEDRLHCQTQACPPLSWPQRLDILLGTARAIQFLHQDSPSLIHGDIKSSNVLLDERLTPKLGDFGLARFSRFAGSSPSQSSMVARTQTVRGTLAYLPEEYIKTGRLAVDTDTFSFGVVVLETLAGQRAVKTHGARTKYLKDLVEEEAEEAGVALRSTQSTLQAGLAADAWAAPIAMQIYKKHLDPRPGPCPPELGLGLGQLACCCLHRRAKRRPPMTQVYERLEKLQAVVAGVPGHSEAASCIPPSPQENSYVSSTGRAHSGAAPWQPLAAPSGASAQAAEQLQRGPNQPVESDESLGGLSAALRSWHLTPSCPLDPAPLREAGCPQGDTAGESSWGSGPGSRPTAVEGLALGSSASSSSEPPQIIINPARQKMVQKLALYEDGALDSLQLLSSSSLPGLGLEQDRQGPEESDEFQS

Compound | IC50 [1] [nM] | IC50 [2] [nM] | IC50 ([3]; Homo sapiens, PBMC) [nM] | IC50 [3] [nM]
Cn1cc(-c2cccc(-c3ncc(-c4cnn(C)c4)c(NCCNS(C)(=O)=O)n3)c2)cn1 [Example 267] | 100 to 1000 | < 100 | 100 to 1000 | 
Cn1cc(-c2cccc(-c3ncc(-c4cnn(C)c4)c(N[C@H]4CCC[C@@H](O)[C@H]4O)n3)c2)cn1 [Example 268] | < 100 | < 100 | < 100 | 
Cn1cc(-c2cccc(-c3ncc(-c4cnn(C)c4)c(NC45CC(N)(C4)C5)n3)c2)cn1 [Example 269] | 100 to 1000 | < 100 | 100 to 1000 | 
Cn1cc(-c2cccc(-c3ncc(-c4cnn(C)c4)c(NC45CC(NS(C)(=O)=O)(C4)C5)n3)c2)cn1 [Example 270] | < 100 | < 100 | < 100 | 
Cn1cc(-c2cccc(-c3ncc(-c4cnn(C)c4)c(NCC(F)(F)F)n3)c2)cn1 [Example 271] | 100 to 1000 | < 100 | 1000 to 5000 | 
Cn1cc(-c2cccc(-c3ncc(-c4cnn(C)c4)c(NCC(F)(F)C(F)(F)C(F)(F)F)n3)c2)cn1 [Example 272] | 100 to 1000 | < 100 |  | 1000 to 5000
Cn1cc(-c2cccc(-c3ncc(-c4cnn(C)c4)c(N[C@H]4CC[C@H](O)[C@@H]4O)n3)c2)cn1 [Example 273] | 100 to 1000 | < 100 | 100 to 1000 | 
Cn1cc(-c2cccc(-c3ncc(-c4cnn(C)c4)c(NCC(O)C(F)(F)F)n3)c2)cn1 (stereo not drawn) [Example 275] | 100 to 1000 | < 100 | 100 to 1000 | 
Cn1cc(-c2cccc(-c3ncc(-c4cnn(C)c4)c(N[C@H]4CC[C@H](NS(=O)(=O)C5CC5)CC4)n3)c2)cn1 [Example 276] | < 100 | < 100 | 100 to 1000 | 
Cn1cc(-c2cccc(-c3ncc(-c4cnn(C)c4)c(NCCS(N)(=O)=O)n3)c2)cn1 [Example 278] | < 100 | < 100 | 100 to 1000 | 
Cn1cc(-c2cccc(-c3ncc(-c4cnn(C)c4)c(N[C@H]4CC[C@H](C(=O)O)CC4)n3)c2)cn1 [Example 279] | > 5000 | 100 to 1000 | > 5000 | 
Cn1cc(-c2cccc(-c3ncc(-c4cnn(C)c4)c(N4CC[C@H](F)[C@@H](O)C4)n3)c2)cn1 [Example 280] | 100 to 1000 | < 100 | 1000 to 5000 | 
Cn1cc(-c2cccc(-c3ncc(-c4cnn(C)c4)c(NCCCS(C)(=N)=O)n3)c2)cn1 (stereo not drawn) [Example 282] | 1000 to 5000 | 100 to 1000 | > 5000 | 
Cn1cc(-c2cccc(-c3ncc(-c4cnn(C)c4)c(N4C[C@H](N)CC(F)(F)C4)n3)c2)cn1 [Example 283, (R)-5,5-Difluoro-1-{5-(1-methyl-1H-pyrazol-4-yl)-2-[3-(1-methyl-1H-pyrazol-4-yl)-phenyl]-pyrimidin-4-yl}-piperidin-3-ylamine] | 1000 to 5000 | 1000 to 5000 | 1000 to 5000 | 
Cn1cc(-c2cccc(-c3ncc(-c4cnn(C)c4)c(N4C[C@@H](N)CC(F)(F)C4)n3)c2)cn1 [Example 284, (S)-5,5-Difluoro-1-{5-(1-methyl-1H-pyrazol-4-yl)-2-[3-(1-methyl-1H-pyrazol-4-yl)-phenyl]-pyrimidin-4-yl}-piperidin-3-ylamine] | 1000 to 5000 | < 100 | 100 to 1000 | 
Cn1cc(-c2cccc(-c3ncc(-c4cnn(C)c4)c(N[C@@H]4CCCC(F)(F)[C@H]4O)n3)c2)cn1 [Example 287, (1S,6R)-2,2-Difluoro-6-{5-(1-methyl-1H-pyrazol-4-yl)-2-[3-(1-methyl-1H-pyrazol-4-yl)-phenyl]-pyrimidin-4-ylamino}-cyclohexanol] | 100 to 1000 | < 100 | 1000 to 5000 | 
Cn1cc(-c2cccc(-c3ncc(-c4cnn(C)c4)c(N[C@H]4CCCC[C@@H](O)[C@H]4O)n3)c2)cn1 [Example 288, (1R,2S,3S)-3-{5-(1-Methyl-1H-pyrazol-4-yl)-2-[3-(1-methyl-1H-pyrazol-4-yl)-phenyl]-pyrimidin-4-ylamino}-cycloheptane-1,2-diol] | < 100 | < 100 |  | < 100
Cn1cc(-c2cccc(-c3ncc(-c4cnn(C)c4)c(N[C@@H]4CCCC[C@H](O)[C@@H]4O)n3)c2)cn1 [Example 289, (1S,2R,3R)-3-{5-(1-Methyl-1H-pyrazol-4-yl)-2-[3-(1-methyl-1H-pyrazol-4-yl)-phenyl]-pyrimidin-4-ylamino}-cycloheptane-1,2-diol] | > 5000 | < 100 | 100 to 1000 | 
